Earlier results in patent US7772207B2, “Combination of a CDK inhibitor and CS-682 or a metabolite thereof” (Cyclacel Limited, priority 2003, dated 2010).

Tests used:
[1] = test system: colon cancer
[2] = phase I, patients with a variety of cancers

## CCCCCCCCCCCCCCCC(=O)Nc1ccn([C@@H]2O[C@H](CO)[C@@H](O)[C@@H]2C#N)c(=O)n1 [(I), 1-(2-C-cyano-2-dioxy-β-D-arabino-pentofuranosyl)-N^4-palmitoyl cytosine]
[1]; model of colon cancer
  anticancer activity: strong anticancer activity
[1]; same model of colon cancer
  increasing survival and preventing the spread of colon cancer metastases to the liver, compared with gemcitabine or 5-FU: superior to either gemcitabine or 5-FU
[2]
  dose limiting toxicity: myelosuppression
  tolerability: well tolerated
